# Read-outs that look alike come from different tables or passages of the source.
# What was measured:
# patients = conditions: cited from earlier work
# [1] = tested on: smooth muscle of rat prostate; test: Relaxation of phenylephrine-contracted rat prostatic tissue in organ bath, formula (I) and Tamsulosin; assay type: cell-based, Sprague-Dawley rat
# Experimental: Male Sprague-Dawley rat with 300-400 g of body weight was sacrificed and the prostate was extracted and transferred to Krebs-Henseleit buffer kept cold. The dorsolateral lobes of prostatic tissue were transected to separate prostatic tissue gland with size of 2×10 mm (4 tissues per a rat). The separated tissues were transferred to organ bath where 95% O2, and 5% CO2 were emitted and Krebs-Henseleit buffer (37° C.) was contained, both ends of the tissue gland were fixed to the bath floor and force transducer connected to polygraph(Grass Instruments) respectively. Each tissue was stabilized under 0.2 standard tension for 1 hour, and then treated by 1 μM of phenylephrine to induce the contraction of prostatic tissue. […] In Table 1, data were obtained by using four (4) tissue glands were used for each concentration of the drug, and the numerical value is mean ±standard error of the percentage of contracting degree (inverse proportion to percentage of relaxation degree).
# health men [2] = test: Safety Test 1: vital signs in supine position, Tamsulosin combination; assay type: in vivo, human; conditions: for Diastolic blood pressure mean: the values are: Diastolic blood pressure mean
# Experimental: (§1) The safety evaluation was performed by observing vital signs (diastolic blood pressure, pulse rate, body temperature), clinical laboratory testing, electrocardiogram, adverse reactions such as subjective symptom and objective symptom.
# [3] = Safety Test 1: pharmacokinetics of the pyrazolopyrimidinone; assay type: in vivo; conditions: male, human, plasma
# Experimental: as §1, with “symptom. In addition, the effect of drug interaction on pharmacokinetics of the pyrazolopyrimidinone was observed.” for “symptom.”
# [4] = Physicochemical properties (pKa, solubility)
# health men [5] = test: Safety Test 2: vital signs in supine position, Silodosin combination; assay type: in vivo, human; conditions: for Diastolic blood pressure mean: the values are: Diastolic blood pressure mean
# Experimental: as §1
# [6] = Pharmacokinetic characteristics in the body; assay type: in vivo
# PDE 5 = PDE 5 (Homo sapiens, UniProt O76074); test: PDE 5 inhibition; assay type: biochemical
# [7] = tested on: smooth muscle of rat bladder; test: Relaxation of carbachol-contracted rat bladder tissue in organ bath; assay type: cell-based, Sprague-Dawley rat; conditions: for percentage of relaxation degree: L-NAME or Tamsulosin 10^−4M where combined
# [8] = Safety Test 2: pharmacokinetic parameters; assay type: in vivo; conditions: male, human, plasma
# Experimental: as §1, with “symptom. In addition, the effect of drug-drug interaction on pharmacokinetics of the pyrazolopyrimidinone was observed.” for “symptom.”
# [9] = tested on: smooth muscle of rat prostate; test: Relaxation of contracted rat prostatic tissue in organ bath, formula (I) and Silodosin; assay type: cell-based, Sprague-Dawley rat
# Experimental: Male Sprague-Dawley rat with 300-400 g of body weight was sacrificed and the prostate was extracted and transferred to Krebs-Henseleit buffer kept cold. The dorsolateral lobes of prostatic tissue were transected to separate prostatic tissue gland with size of 2×10 mm (4 tissues per a rat). The separated tissues were transferred to organ bath where 95% O2, and 5% CO2 were emitted and Krebs-Henseleit buffer (37° C.) was contained, both ends of the tissue gland were fixed to the bath floor and force transducer connected to polygraph(Grass Instruments) respectively.
# Each tissue was stabilized for 1 hour, and then treated by 10^−5M carbachol to induce the contraction of prostatic tissue.
# In Table 3, data were obtained by using four (4) tissue glands were used for each concentration of the drug, and the numerical value is mean ± standard error of the percentage of contracting degree (inverse proportion to relaxation degree).
# [10] = Group B: placebo + the pyrazolopyrimidinone
# [11] = Group D: administered with Tamsulosin
smiles,measurement,setting,value
CCCc1nc(C)c2c(=O)[nH]c(-c3cc(S(=O)(=O)N4CCN(CC)CC4)ccc3OCC)nn12 [Vardenafil],blood pressure effect in combination of α-adrenergic receptor antagonist,patients; combination with α-adrenergic receptor antagonist,some patients shows low blood pressure
COc1cc2nc(N3CCN(C(=O)C4CCCO4)CC3)nc(N)c2cc1OC (stereo not drawn) [Terazocin],side effect in combination of PDE 5 inhibitors,"patients; human, in vivo",orthostatic hypotension
"CCOc1ccccc1OCCN[C@H](C)Cc1ccc(OC)c(S(N)(=O)=O)c1 [Tamsulosin, (R)-5-(2-(2-(2-ethoxyphenoxy)ethylamino)propyl)-2-methoxy benzensulfonamide, reference compound]",Contraction degree (%),"[1]; Compound of formula (I) 0 μM, Tamsulosin 0.25 nM",90.8 ± 1.4%
same,Contraction degree (%),"[1]; Compound of formula (I) 0 μM, Tamsulosin 1 nM",78.8 ± 2.0%
same,Contraction degree (%),"[1]; Compound of formula (I) 0 μM, Tamsulosin 4 nM",43.6 ± 4.2%
same,side effect in combination of PDE 5 inhibitors,patients; administered in combination of PDE 5 inhibitors,orthostatic hypotension
same,Pulse rate mean,health men [2],57.7
same,Diastolic blood pressure mean,health men [2],63 mmHg
"CCCOc1ccc(S(=O)(=O)NCCC2CCCN2C)cc1-c1nc2c(CCC)nn(C)c2c(=O)[nH]1 (stereo not drawn) [Compound of formula (I), 5-[2-propyloxy-5-(1-methyl-2-pyrolidinylethylamidosulphonyl)phenyl]-1-methyl-propyl-1,6-dihydro-7H-pyrazolo (4,3-d)pyrimidin-7-one]",AUC(0-inf),[3]; [10],4730 ± 1260 ng·h/mL
same,Cmax,[3]; [10],617 ± 169 ng/mL
same,Tmax,[3]; [10],1.5 h
same,half-life,[3]; [10],9.7 ± 1.7 h
same,AUC(0-inf),[3]; [11],4910 ± 1260 ng·h/mL
same,Cmax,[3]; [11],624 ± 200 ng/mL
same,Tmax,[3]; [11],1.1 h
same,half-life,[3]; [11],9.9 ± 2.3 h
same,pKa1,[4],about 6.5
same,pKa2,[4],about 12.5
same,solubility,[4],improved solubility
same,"solubility to acetic acid, methanol or chloroform","[4]; acetic acid, methanol or chloroform",high solubility
same,solubility to water,[4]; water,low solubility
same,Pulse rate mean,health men [5],61.4
same,Diastolic blood pressure mean,health men [5],62.2 mmHg
same,Contraction degree (%),"[1]; Compound of formula (I) 3 μM, Tamsulosin 0 nM, 1 μM phenylephrine",92.6 ± 2.2%
same,Contraction degree (%),"[1]; Compound of formula (I) 10 μM, Tamsulosin 0 nM",77.1 ± 2.5%
same,Contraction degree (%),"[1]; Compound of formula (I) 30 μM, Tamsulosin 0 nM",62.2 ± 3.1%
same,half life in the body compared with the sildenafil-type citrate and vardenafil-type hydrochloride named,[6]; in the body,three times longer half life
same,absorption,[6]; in vivo,rapid absorption
same,bioavailability,[6]; in vivo,high bioavailability
same,distribution volume in the body,[6]; in vivo,high distribution volume
same,inhibition of PDE 5,PDE 5,inhibits PDE 5 strongly
same,percentage of relaxation degree,[7]; Compound of formula (I) 10^−4M,17.4 ± 3.7%
same,percentage of relaxation degree,"[7]; Compound of formula (I) 10^−4M, listed as pyrazolopyrimidinone of formula (I)",about 17.4%
same,percentage of relaxation degree,[7]; Compound of formula (I) 10^−5M,7.2 ± 1.6%
same,percentage of relaxation degree,[7]; Compound of formula (I) 10^−6M,2.0 ± 1.1%
same,percentage of relaxation degree,[7]; Compound of formula (I) 10^−7M,0.0 ± 0.0%
same,percentage of relaxation degree,"[7]; Compound of formula (I) 10^−8M, 10^−5M carbachol",0.0 ± 0.0%
same,concentration at which the relaxation effect began to be represented,[7]; administered alone,10^−6 M
same,AUC(0-inf),"[8]; Group A: placebo + the pyrazolopyrimidinone, read-out: AUCinf Ud",4820 ± 1320 ng·h/mL
same,Cmax,"[8]; Group A: placebo + the pyrazolopyrimidinone, read-out: Cmax Ud",627 ± 158 ng/mL
same,Tmax,"[8]; Group A: placebo + the pyrazolopyrimidinone, read-out: Tmax (h) Ud",1.5 h
same,AUC(0-inf),"[8]; Group C: Silodosin + the pyrazolopyrimidinone, read-out: AUCinf Ud",4940 ± 1260 ng·h/mL
same,Cmax,"[8]; Group C: Silodosin + the pyrazolopyrimidinone, read-out: Cmax Ud",660 ± 196 ng/mL
same,Tmax,"[8]; Group C: Silodosin + the pyrazolopyrimidinone, read-out: Tmax (h) Ud",1.3 h
same,Contraction degree (%),"[9]; Compound of formula (I) 3 μM, Silodosin 0 nM",92.6 ± 2.2%
same,Contraction degree (%),"[9]; Compound of formula (I) 10 μM, Silodosin 0 nM",77.1 ± 2.5%
same,Contraction degree (%),"[9]; Compound of formula (I) 30 μM, Silodosin 0 nM",62.2 ± 3.1%
same,Pulse rate mean,health men [2],60.2
same,Diastolic blood pressure mean,health men [2],61.6 mmHg
"C[C@H](Cc1cc2c(c(C(N)=O)c1)N(CCCO)CC2)NCCOc1ccccc1OCC(F)(F)F [Silodosin, reference compound]",Pulse rate mean,health men [5],64.2
same,Diastolic blood pressure mean,health men [5],62.3 mmHg
same,AUC(0-inf),"[8]; AUCinf Silodosin, Group B: placebo + Silodosin",110 ± 17.6 ng·h/mL
same,AUC(0-inf),"[8]; AUCinf Silodosin, Group C: Silodosin + the pyrazolopyrimidinone",132 ± 25.2 ng·h/mL
same,Cmax,"[8]; Cmax Silodosin, Group B: placebo + Silodosin",31.1 ± 7.2 ng/mL
same,Cmax,"[8]; Cmax Silodosin, Group C: Silodosin + the pyrazolopyrimidinone",35.2 ± 7.8 ng/mL
same,Tmax,"[8]; Tmax (h) Silodosin, Group B: placebo + Silodosin",1.4 h
same,Tmax,"[8]; Tmax (h) Silodosin, Group C: Silodosin + the pyrazolopyrimidinone",1.7 h
same,Contraction degree (%),"[9]; Compound of formula (I) 0 μM, Silodosin 0.1 nM",90.8 ± 1.4%
same,Contraction degree (%),"[9]; Compound of formula (I) 0 μM, Silodosin 1 nM",82.0 ± 1.7%
same,Contraction degree (%),"[9]; Compound of formula (I) 0 μM, Silodosin 10 nM",46.9 ± 1.6%

# Reference: US20100210668A1, “COMPOSITION AND METHOD FOR TREATMENT OR PREVENTION OF BENIGN PROSTATIC HYPERPLASIA AND LOWER URINARY TRACT SYMPTOMS” (DONG-A PHARM. CO., LTD., priority 2007, published 2010)
